Common to all, as to format: biochemical
The target of one assay is human thrombin (Homo sapiens, UniProt P00734). Description: Thrombin inhibition assay (selectivity against thrombin). Conditions: A1: cyclopropyl scaffold. The procedure:
The FXa inhibiting selectivity of the compound according to the present invention to thrombin is measured as follows. The inhibition effect of the compound of formula 1 to thrombin is measured in Ki value by practicing the same method as the above measuring method of FXa inhibiting activity, and the rate of thrombin/FXa is obtained. At this time, the experimental method of thrombin is the same as that of FXa, except that Chromozyme TH (Tosyl-Gly-Pro-Arg-nitroanilide acetate) is used as the substrate.
Inhibiting ability of a compound according to the present invention against thrombin activity was measured as follows.
In 1.5 mL cuvette, 0.1M tris buffer solution (pH 7.8) comprising 150 mM NaCl, and 0.1% PEG 8000 (molecular weight 8000) was placed by 1160 uL. Chromozyme X was dissolved in dimethylsulfoxide (DMSO) to be 0.1 mM, and diluted with the above buffer solution to be 0.1 mM to prepare the substrate solution. 225 uL of 0.1 mM substrate solution as prepared above was added to cuvette. The compound of the present invention was dissolved in DMSO to be 10 mM, and diluted with the above buffer solution to be 0.1 mM, 0.01 mM and 0.001 mM, respectively, to prepare an inhibitor solution. The inhibitor solution was taken in an amount from 0 to 20 uL, and supplemented with tris buffer solution up to 20 uL of total volume of the solution to add to the cuvette.
15 uL of human thrombin, which was dissolved in the above tris buffer solution to be 0.1 mg/mL, was added to the cuvette having the reaction solution at room temperature to begin enzyme hydrolysis. The amount of para-nitroanilide produced for 2 minutes after adding enzyme was monitored about variation of absorbency at 381 nm to depict continuous spectrum of reaction time to absorbency. The above experiment was repeated for various concentrations of inhibitor to obtain consecutive spectrum.
The initial velocity Vi was calculated from gradient within 30 sec of the reaction time in each spectrum. A graph was depicted for a reciprocal of the initial velocity to inhibitor concentration (1/Vi). A linear equation corresponding to points on the graph was obtained. Thereafter, Ki may be calculated by using enzyme reaction equation from x intercept.

Assay [1] deals with T1, trypsin (UniProt P00760).
T1 construct: other: A1: cyclopropyl scaffold; other: A2: pyrrole scaffold; other: A3: bicyclic scaffold; other: A4: cyanophenylalanine scaffold
T1 sequence (P00760 1-246): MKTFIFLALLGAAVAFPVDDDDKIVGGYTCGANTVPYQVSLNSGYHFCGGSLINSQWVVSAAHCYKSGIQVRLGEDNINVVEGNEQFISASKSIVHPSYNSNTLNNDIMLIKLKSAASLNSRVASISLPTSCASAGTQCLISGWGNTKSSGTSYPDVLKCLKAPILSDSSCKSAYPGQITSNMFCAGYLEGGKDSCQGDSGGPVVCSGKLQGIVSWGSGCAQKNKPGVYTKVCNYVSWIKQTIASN
Briefly: Trypsin inhibition assay (selectivity against trypsin). Conditions: A1: cyclopropyl scaffold; read-out: Inhibition ability against trypsin Ki. Here is the method:
(§1) The FXa inhibition selectivity of the compound according to the present invention to trypsin is measured as follows. The inhibition effect of the compound of formula 1 to trypsin is measured in Ki value by practicing the same method as the above measuring method of FXa inhibiting activity, and the rate of trypsin/FXa is obtained. At this time, the experimental method of thrombin is the same as that of FXa, except that N-benzoyl-Val-Gly-Arg-p-nitroanilide hydrochloride is used as the substrate.
(§2) Inhibition activity of a compound according to the present invention was measured by performing the experiment as explained above concerning FXa.
(§3) 20 uM solution of N-benzoyl-Val-Gly-Arg-p-nitroanilide hydrochloride was used as a substrate. An inhibitor solution with various concentrations in the range of 0 to 120 uM was used. Trypsin was dissolved in 0.1N HCl, and supplemented with the above tris buffer solution to be 45 ug/mL. Thereafter, 40 uL of the trypsin solution was used. The remaining procedure and the used amounts of materials (for example, […] of total volume of the reaction solution) and the like were the same as those of the experiment for thrombin. Also, Km was decided in the same method as used in Ki calculation.

Assay [2] relates to trypsin. Described as above. To be noted: A1: cyclopropyl scaffold; ratio of Ki values. Here is the method:
as §1, §2, §3

Here are results for 1 molecule from patent US20030065176A1, “Factor xa inhibitors with aryl-amidines and derivatives, and prodrugs thereof” (priority 2000, published 2003).

pKi: −log10 of the molar value.

What is called pKi is −log10 of the Ki, conventionally taken in molar units.

For `N#Cc1ccccc1-c1ccc(NC(=O)[C@@H]2C[C@@H]2c2cccc(C(=N)N)c2)cc1.O=C(O)C(F)(F)F` (relative stereo) [Compound No. A1-7, 4-(2-cyanophenyl)-phenyl [1,2]-cis, [2,3]-cis-2-(3-aminoiminomethylphenyl)cyclopropane-1-carboxamide mono trifluoroacetic acid salt], the “Selectivity (thrombin/FXa)” value at human thrombin (ratio of Ki values) turned out to be 400. For the same molecule, the values for the pKi on human thrombin (read-out: Inhibition ability against thrombin Ki) and at trypsin [1] were 5.70 and 6.70, respectively. In the assay with trypsin [2], the “Selectivity (trypsin/FXa)” value turned out to be 40.
